System: P12-Ichikawa
Assay: cell viability relative to DMSO control; higher = less cytotoxic
Settings: 48 h
Method in brief: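 Viability, reported as a per-plate percentage of DMSO wells with cell-free wells as background, came from CellTiter-Glo One luminescence. Reading took place after 48 h at 37°C. Before that, NOMO1 or SEM (500 cells/well) or P12-Ichikawa (1000 cells/well) leukemia cells, adapted for at least four passages in each medium, were seeded in 1536-well plates (5 μl) and pin-dosed with library compounds in DMSO, 47 μM to 0.79 nM over 11 threefold points.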

[1] = HPLM + 10% dialyzed FBS, 0.000781 µM
[2] = HPLM + 10% dialyzed FBS, 0.00234 µM
[3] = HPLM + 10% dialyzed FBS, 0.00702 µM
[4] = HPLM + 10% dialyzed FBS, 0.0211 µM
[5] = HPLM + 10% dialyzed FBS, 0.0632 µM
[6] = HPLM + 10% dialyzed FBS, 0.19 µM
[7] = HPLM + 10% dialyzed FBS, 0.569 µM
[8] = HPLM + 10% dialyzed FBS, 1.71 µM
[9] = HPLM + 10% dialyzed FBS, 5.12 µM
[10] = HPLM + 10% dialyzed FBS, 15.4 µM
[11] = HPLM + 10% dialyzed FBS, 46.1 µM
[12] = RPMI 5 mM glucose + 10% FBS, 0.000781 µM
[13] = RPMI 5 mM glucose + 10% FBS, 0.00234 µM
[14] = RPMI 5 mM glucose + 10% FBS, 0.00702 µM
[15] = RPMI 5 mM glucose + 10% FBS, 0.0211 µM
[16] = RPMI 5 mM glucose + 10% FBS, 0.0632 µM
[17] = RPMI 5 mM glucose + 10% FBS, 0.19 µM
[18] = RPMI 5 mM glucose + 10% FBS, 0.569 µM
[19] = RPMI 5 mM glucose + 10% FBS, 1.71 µM
[20] = RPMI 5 mM glucose + 10% FBS, 5.12 µM
[21] = RPMI 5 mM glucose + 10% FBS, 15.4 µM
[22] = RPMI 5 mM glucose + 10% FBS, 46.1 µM
[23] = RPMI 5 mM glucose + 10% dialyzed FBS, 0.000781 µM
[24] = RPMI 5 mM glucose + 10% dialyzed FBS, 0.00234 µM
[25] = RPMI 5 mM glucose + 10% dialyzed FBS, 0.00702 µM
[26] = RPMI 5 mM glucose + 10% dialyzed FBS, 0.0211 µM
[27] = RPMI 5 mM glucose + 10% dialyzed FBS, 0.0632 µM
[28] = RPMI 5 mM glucose + 10% dialyzed FBS, 0.19 µM
[29] = RPMI 5 mM glucose + 10% dialyzed FBS, 0.569 µM
[30] = RPMI 5 mM glucose + 10% dialyzed FBS, 1.71 µM
[31] = RPMI 5 mM glucose + 10% dialyzed FBS, 5.12 µM
[32] = RPMI 5 mM glucose + 10% dialyzed FBS, 15.4 µM
[33] = RPMI 5 mM glucose + 10% dialyzed FBS, 46.1 µM

SMILES	cell viability [1]	cell viability [2]	cell viability [3]	cell viability [4]	cell viability [5]	cell viability [6]	cell viability [7]	cell viability [8]	cell viability [9]	cell viability [10]	cell viability [11]	cell viability [12]	cell viability [13]	cell viability [14]	cell viability [15]	cell viability [16]	cell viability [17]	cell viability [18]	cell viability [19]	cell viability [20]	cell viability [21]	cell viability [22]	cell viability [23]	cell viability [24]	cell viability [25]	cell viability [26]	cell viability [27]	cell viability [28]	cell viability [29]	cell viability [30]	cell viability [31]	cell viability [32]	cell viability [33]
CCOc1ccc(Nc2nc(-c3c(C)nc4ccccn34)cs2)cc1	117%	116%	116%	103%	53.8%	19.3%	26.3%	24.1%	16.3%	14.5%	9.9%	116%	121%	129%	109%	72.8%	16.7%	19.6%	19.6%	22.3%	17.5%	9.84%	104%	116%	110%	108%	94.2%	28.9%	29.6%	30.3%	27.3%	28.1%	14.8%
CCC[C@H](N[C@@H](C)C(=O)N1[C@H](C(=O)O)C[C@@H]2CCCC[C@@H]21)C(=O)OCC	110%	108%	109%	113%	104%	115%	112%	109%	93.2%	88.1%	84.7%	106%	103%	121%	112%	117%	108%	106%	97.9%	77.1%	79.5%	71.6%	124%	99%	113%	111%	122%	116%	103%	110%	87.3%	78.3%	69.8%
CNC1[C@@H](O)C(O[C@@H]2C(O)C(O[C@H]3O[C@H]([C@@H](C)NC)CC[C@H]3N)[C@@H](N)C[C@H]2N)OC[C@]1(C)O (some centres not stated)	104%	98.3%	102%	99.6%	96.5%	102%	102%	98.6%	89.6%	90.8%	85.4%	92.8%	88.9%	97.7%	91.8%	93%	102%	95.2%	97.1%	87.9%	82.4%	92.2%	92.7%	89.9%	90%	93%	97.8%	92.2%	94.1%	92.3%	89.4%	82.7%	88.4%
C\C1=C\C(=O)C2=C(C=CC=C2)C1=O	108%	104%	118%	125%	128%	120%	127%	125%	122%	116%	123%	107%	119%	109%	130%	125%	118%	125%	135%	134%	139%	131%	119%	122%	121%	130%	127%	137%	128%	118%	120%	131%	128%

Reference: the supplement of paper PMC11451515
